According to article PMC8657792, “Interaction Profiles of Central Nervous System Active Drugs at Human Organic Cation Transporters 1–3 and Human Plasma Membrane Monoamine Transporter” (International Journal of Molecular Sciences, 2021):
Like-named read-outs stand apart in the source and are kept apart here.

What was measured:
mOCT3 = system: mOCT3; set-up: method as in earlier work; conditions: Table S1, hOCT3 column, marked (mOCT3); supplementary reference list; read-out: IC50 literature (mOCT3); cited from earlier work
hOCT2 [1] = molecular target: T1, hOCT2 (Homo sapiens, UniProt O15244); conditions: Table S1, supplementary reference list, cited from earlier work; for IC50: read-out: IC50 literature hOCT2; for Ki: read-out: IC50 literature hOCT2 (Ki), Ki values
T1 construct: expressed in transfected cells
T1 sequence (O15244 1-555): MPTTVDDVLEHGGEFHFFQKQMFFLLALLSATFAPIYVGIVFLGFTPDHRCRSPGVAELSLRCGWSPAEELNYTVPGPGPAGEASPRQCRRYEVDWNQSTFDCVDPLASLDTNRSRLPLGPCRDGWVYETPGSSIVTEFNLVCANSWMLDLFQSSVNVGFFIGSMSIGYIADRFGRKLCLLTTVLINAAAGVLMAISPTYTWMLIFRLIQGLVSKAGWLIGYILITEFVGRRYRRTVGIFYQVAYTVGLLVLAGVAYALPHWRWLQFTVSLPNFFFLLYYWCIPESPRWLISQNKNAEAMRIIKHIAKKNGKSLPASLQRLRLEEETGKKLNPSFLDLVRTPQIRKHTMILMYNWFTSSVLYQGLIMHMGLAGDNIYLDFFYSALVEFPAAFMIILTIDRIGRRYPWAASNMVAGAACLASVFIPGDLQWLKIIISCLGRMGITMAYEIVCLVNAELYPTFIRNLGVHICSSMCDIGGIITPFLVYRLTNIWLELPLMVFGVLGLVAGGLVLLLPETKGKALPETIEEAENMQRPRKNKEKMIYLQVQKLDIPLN

hPMAT [2] = molecular target: T2, hPMAT (Homo sapiens, UniProt Q7RTT9); conditions: Table S1, supplementary reference list, read-out: IC50 literature hPMAT, cited from earlier work
T2 construct: expressed in transfected cells
T2 sequence (Q7RTT9 1-530): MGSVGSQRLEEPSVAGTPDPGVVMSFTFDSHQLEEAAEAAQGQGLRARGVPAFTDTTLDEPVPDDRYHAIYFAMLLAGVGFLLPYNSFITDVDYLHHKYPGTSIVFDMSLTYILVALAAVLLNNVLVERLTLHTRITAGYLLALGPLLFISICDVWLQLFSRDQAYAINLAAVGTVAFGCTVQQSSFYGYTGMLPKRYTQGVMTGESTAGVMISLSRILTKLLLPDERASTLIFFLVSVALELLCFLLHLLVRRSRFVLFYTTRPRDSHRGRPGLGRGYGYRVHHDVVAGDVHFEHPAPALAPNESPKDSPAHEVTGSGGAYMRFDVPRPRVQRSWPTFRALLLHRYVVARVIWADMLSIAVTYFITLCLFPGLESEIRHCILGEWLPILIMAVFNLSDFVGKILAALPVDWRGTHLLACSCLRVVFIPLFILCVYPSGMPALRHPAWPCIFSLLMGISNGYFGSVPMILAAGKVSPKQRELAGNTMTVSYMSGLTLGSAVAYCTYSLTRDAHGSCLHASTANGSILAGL

hOCT1 [3] = molecular target: T3, hOCT1 (Homo sapiens, UniProt O15245); conditions: Table S1, supplementary reference list, cited from earlier work; for IC50: read-out: IC50 literature hOCT1; for Ki: read-out: IC50 literature hOCT1 (Ki), Ki values
T3 construct: expressed in transfected cells
T3 sequence (O15245 1-554): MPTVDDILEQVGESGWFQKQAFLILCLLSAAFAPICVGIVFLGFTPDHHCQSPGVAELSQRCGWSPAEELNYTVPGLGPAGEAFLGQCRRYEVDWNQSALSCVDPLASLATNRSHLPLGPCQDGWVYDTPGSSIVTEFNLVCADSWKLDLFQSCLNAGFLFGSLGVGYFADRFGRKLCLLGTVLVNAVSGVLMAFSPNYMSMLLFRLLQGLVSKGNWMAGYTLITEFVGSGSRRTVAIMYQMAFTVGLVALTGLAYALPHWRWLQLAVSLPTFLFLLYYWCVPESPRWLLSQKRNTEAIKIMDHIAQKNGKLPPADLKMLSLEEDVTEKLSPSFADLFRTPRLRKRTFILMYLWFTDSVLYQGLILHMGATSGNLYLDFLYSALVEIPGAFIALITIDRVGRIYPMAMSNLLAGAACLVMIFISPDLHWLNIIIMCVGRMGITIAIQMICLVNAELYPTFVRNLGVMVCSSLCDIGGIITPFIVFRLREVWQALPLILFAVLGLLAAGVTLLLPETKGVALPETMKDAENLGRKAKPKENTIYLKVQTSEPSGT

hOCT1 [4] = molecular target: T3, hOCT1; test: [3H]MPP+ uptake inhibition assay, HEK293 cells stably expressing hOCT1; assay type: cell-based
Description: (§1) HEK293 cells were transfected with a plasmid, encoding the transporter of interest and an N-terminal YFP-tag, carried out using jetPRIME ^© (Polyplus Transfection; (VWR International GmbH, Vienna, Austria)) reagent (for a 10 cm dish with 1–2 × 10^6 cells in 10 mL serum containing medium at 60–80% confluency: 500 μ L jetPRIME ^© buffer, 10 μ g DNA and 20 μ L jetPRIME ^© reagent) and selection pressure maintained for two weeks [2, 54, 55]. Subsequently, 500,000 cells were FACS-sorted (fluorescence-activated cell sorting) according to expression level to establish cell lines stably expressing the protein of interest. […] For uptake inhibition assays, cells were cultured at a subconfluent (80–90% density) state in high-glucose Dulbecco’s Modified Eagle Medium (DMEM ), enriched with 10% heat-inactivated Fetal Bovine Serum (FBS) and penicillin/streptomycin (PS; 100 U × 100 mL ^−1 , each). Selection pressure was maintained by the addition of geneticin (50 mg × mL ^−1 ) at 37 ^∘ C and 5% CO 2 in a humidified incubator. At a density of 60,000 cells per well, HEK293 cells expressing the respective transporter were seeded onto poly-D-lysine-coated wells 24 h prior to uptake inhibition experiments in a final volume of 200 μ L per well.
(§2) Prior to the addition of the respective compounds, DMEM was removed from all wells and replaced with 200 μ L of Krebs-HEPES-buffer (KHB; 10 mM HEPES, 120 mM NaCl, 3 mM KCl, 2 mM CaCl 2 , 2 mM MgSO 4 and 20 mM D-glucose, pH adjusted to 7.3) at room temperature. Cells were exposed to a pre-incubation solution containing the compound of interest in the respective concentration (dissolved in Krebs-HEPES-buffer) for 10 min with a total volume of 50 μ L, which was then replaced with a 50 μ L uptake solution containing 0.05 μ M of tritiated 1-methyl-4-phenylpyridinium ([ ^3 H]MPP ^+ ) as substrate, and the compound of interest in respective concentrations, for 10 minutes each. Finally, uptake was terminated by washing with 200 μ L of ice-cold (4 ^∘ C) KHB, after which cells were lysed with 200 μ L of 1% sodium dodecyl sulphate (SDS). After transferring the solution of each well into 6 mL counting vials containing 2 mL of scintillation cocktail, the vials were measured with a beta-scintillation counter for quantification of the uptake of tritiated substrate. […] To obtain specific data, non-specific uptake was assessed in the presence of 100 μ M D22 and subtracted from the total data. The 100% values were defined as uptake in the absence of a tested substance, defining maximal uptake capacity. Inhibitions of the compound of interest were described as a percentage of the maximal uptake capacity.
(§3) Half-maximal inhibitory concentration ( IC50 ) values of each substance were calculated and plotted using GraphPad Prism 8.4.3 (GraphPad Software Inc., San Diego, CA, USA). IC50 was determined by non-linear regression, solving the equation Y=Bottom+(Top−Bottom)/(1+10^X−LogEC50) . […] All data stem from a minimum of three separate experiments (n≥ 3) executed in triplicates and are shown as mean ± SD.

hOCT3 [5] = molecular target: T4, hOCT3 (Homo sapiens, UniProt O75751); conditions: Table S1, supplementary reference list, cited from earlier work; for Ki: read-out: IC50 literature hOCT3 (Ki), Ki values
T4 construct: expressed in transfected cells
T4 sequence (O75751 1-556): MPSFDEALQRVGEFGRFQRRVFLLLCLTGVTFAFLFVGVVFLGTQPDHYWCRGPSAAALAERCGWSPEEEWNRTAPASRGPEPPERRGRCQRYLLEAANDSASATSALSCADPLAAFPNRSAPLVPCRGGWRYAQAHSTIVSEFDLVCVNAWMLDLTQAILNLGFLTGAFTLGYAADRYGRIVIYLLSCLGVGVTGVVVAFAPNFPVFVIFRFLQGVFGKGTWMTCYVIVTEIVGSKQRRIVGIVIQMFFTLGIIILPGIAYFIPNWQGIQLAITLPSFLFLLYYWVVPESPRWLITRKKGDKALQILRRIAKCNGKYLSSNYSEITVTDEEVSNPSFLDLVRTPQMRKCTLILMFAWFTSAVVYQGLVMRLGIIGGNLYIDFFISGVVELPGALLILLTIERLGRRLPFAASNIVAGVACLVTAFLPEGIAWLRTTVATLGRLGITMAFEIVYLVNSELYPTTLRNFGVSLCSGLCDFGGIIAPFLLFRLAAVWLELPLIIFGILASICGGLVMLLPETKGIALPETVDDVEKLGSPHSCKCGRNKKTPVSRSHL

hOCT2 [6] = molecular target: T1, hOCT2; test: [3H]MPP+ uptake inhibition assay, HEK293 cells stably expressing hOCT2; assay type: cell-based
Description: as §1, §2, §3

hOCT3 [7] = molecular target: T4, hOCT3; test: [3H]MPP+ uptake inhibition assay, HEK293 cells stably expressing hOCT3; assay type: cell-based
Description: as §1, §2, §3

hPMAT [8] = molecular target: T2, hPMAT; test: [3H]MPP+ uptake inhibition assay, HEK293 cells stably expressing hPMAT; assay type: cell-based
Description: as §1, §2, §3

CN1C(=O)CN=C(c2ccccc2)c2cc(Cl)ccc21 [Diazepam, diazepam]
IC50 (mOCT3): 40 µM

CN(C)CCCC1(c2ccc(F)cc2)OCc2cc(C#N)ccc21 (stereo not shown) [Citalopram]
IC50 (hOCT2 [1]; ref 1): 115 µM | IC50 (hPMAT [2]; ref 4): 117 µM | IC50 (hOCT1 [3]; ref 1): 13.2 µM

CNC1(c2ccccc2Cl)CCCCC1=O (stereo not shown) [Ketamine, ketamine]
IC50 (hOCT1 [4]): 23.5 µM | IC50 literature hOCT3 (Km) (hOCT3 [5]; Km): 52.9 ± 15.0 µM | Ki (hOCT3 [5]): 226 ± 65 µM | IC50 (hOCT3 [5]; read-out: IC50 literature hOCT3, ASP+ as substrate): 440 µM | IC50 (hOCT2 [6]): 12.5 µM | IC50 (hOCT3 [7]): 1030 µM | IC50 literature hOCT2 (Km) (hOCT2 [1]; Km): 33.5 ± 20.3 µM | Ki (hOCT2 [1]): 22.7 ± 6.3 µM | IC50 literature hOCT1 (Km) (hOCT1 [3]; Km): 73.9 ± 15.2 µM | Ki (hOCT1 [3]): 115 ± 43.7 µM | IC50 (hPMAT [8]): 135 µM

CCCC(C(=O)c1ccccc1)N1CCCC1 (stereo not drawn) [α-PVP]
IC50 (hOCT3 [5]; ref 13, read-out: IC50 literature hOCT3): 1630 µM | IC50 (hOCT3 [5]; ref 14, read-out: IC50 literature hOCT3): > 1000 µM | IC50 (hOCT2 [1]; ref 13): 5.62 µM | IC50 (hOCT2 [1]; ref 14): 17.5 ± 2.5 µM | IC50 (hPMAT [2]; ref 13): 13.4 µM | IC50 (hOCT1 [3]; ref 13): 1.31 µM

CC(NC(C)(C)C)C(=O)c1cccc(Cl)c1 (stereo not shown) [Bupropion, bupropion]
IC50 (hOCT1 [4]; HEK293 stably expressing hOCT1, 0.05 μM [3H]MPP+, 10 min pre-incubation, 10 min uptake, brackets in Table S1 = 95%-CI, n.s. = non-significant, read-out: IC50 hOCT1 (inhibitory potency, [3H]MPP+ uptake)): 5.36 µM | IC50 (hOCT3 [5]; ref 1, read-out: IC50 literature hOCT3): 738 µM | IC50 (hOCT2 [6]; HEK293 stably expressing hOCT2, 0.05 μM [3H]MPP+, 10 min pre-incubation, 10 min uptake, brackets in Table S1 = 95%-CI, n.s. = non-significant, read-out: IC50 hOCT2 (inhibitory potency, [3H]MPP+ uptake)): 32.9 µM | IC50 (hOCT3 [7]; HEK293 stably expressing hOCT3, 0.05 μM [3H]MPP+, 10 min pre-incubation, 10 min uptake, brackets in Table S1 = 95%-CI, n.s. = non-significant, read-out: IC50 hOCT3 (inhibitory potency, [3H]MPP+ uptake)): 186 µM | IC50 (hOCT2 [1]; ref 1): 28.6 µM | IC50 (hOCT2 [1]; ref 2): 32.2 µM | IC50 (hPMAT [2]; ref 3): 115 µM | IC50 (hOCT1 [3]; ref 1): 161 µM | IC50 (hPMAT [8]; HEK293 stably expressing hPMAT, 0.05 μM [3H]MPP+, 10 min pre-incubation, 10 min uptake, brackets in Table S1 = 95%-CI, n.s. = non-significant, read-out: IC50 hPMAT (inhibitory potency, [3H]MPP+ uptake)): 97 µM

C[C@H](N)Cc1ccccc1 [d-Amphetamine, d-amphetamine]
IC50 (hOCT1 [4]): 8.39 µM | IC50 (hOCT3 [5]; marked (5-HT), read-out: IC50 literature hOCT3 (5-HT)): 24.1 ± 70 µM | IC50 (hOCT3 [5]; marked (DA), read-out: IC50 literature hOCT3 (DA)): 41.5 ± 7.5 µM | Ki (hOCT3 [5]): 460 ± 140 µM | IC50 (hOCT3 [5]; read-out: IC50 literature hOCT3, ref 8): 363 ± 56.4 µM | IC50 (hOCT3 [5]; read-out: IC50 literature hOCT3, ref 9): 42 ± 7 µM | IC50 (hOCT2 [6]): 2.21 µM | IC50 (hOCT3 [7]): 337 µM | Ki (hOCT2 [1]): 10.5 ± 2.6 µM | IC50 (hOCT2 [1]): 20.3 ± 16.9 µM | Ki (hOCT1 [3]): 202 ± 68 µM | IC50 (hOCT1 [3]): 96.7 ± 37 µM | IC50 (hPMAT [8]): 71.8 µM
